From ChEMBL document CHEMBL6078640, “Trivalent oleanolic acid-glucose conjugates: Synthesis and efficacy against Influenza A virus” (Eur J Med Chem, 2024)
Active and inactive are the calls of the source. No cut-off for these calls is given here.

Key:
[1] = Toxicity in female BALB/c kunming mouse infected with Influenza A virus A/WSN/33(H1N1) assessed as reduction in kidney injury at 6.25 to 12.5 mg/kg/day, administered intranasally once per day for 7 days starting from 24 hrs post-viral infection by H and E staining based analysis; assay type: organism-based; settings: in vivo, inhaled_or_intranasal, 168 h, dose 6.25-12.5 mg/kg/day, time 7 day
Influenza A virus [2] = test: Antiviral activity against Influenza A virus A/WSN/33(H1N1) infected in female BALB/c kunming mouse assessed as reduction in immune cell infiltration at 12.5 mg/kg/day, administered intranasally once per day for 7 days starting from 24 hrs post-viral infection and measured daily; assay type: functional, organism-based; settings: time 7.0 day
Influenza A virus [3] = test: Antiviral activity against Influenza A virus A/WSN/33(H1N1) infected in female BALB/c kunming mouse assessed as delayed the median time of animal death at 0.125 mg/kg, administered intranasally once per day for 7 days starting from 24 hrs post-viral infection and measured daily; assay type: functional, organism-based; settings: time 7.0 day
Influenza A virus [4] = test: Antiviral activity against Influenza A virus A/WSN/33(H1N1) infected in female BALB/c kunming mouse assessed as protection of mouse at 0.25 mg/kg, administered intranasally once per day for 7 days starting from 24 hrs post-viral infection and measured daily; assay type: functional, organism-based; settings: time 7.0 day
MDCK [5] = test: Inhibition of Hemagglutinin in Influenza A virus H1N1 assessed as inhibition of virus-induced aggregation of chicken erythrocytes pretreated with virus followed by chicken RBC addition and measured after 30 mins by Hemagglutinin inhibition assay; assay type: cell-based; settings: dose 0-1.94 µM
Influenza A virus [6] = test: Antiviral activity against Influenza A virus H1N1 infected in MDCK cells assessed as reduction in cytopathic effect at 100 uM pretreated with cells followed by viral infection and measured after 40 hrs by fluorescence based microplate reader analysis; assay type: functional, organism-based
Influenza A virus [7] = test: Antiviral activity against influenza A virus A/WSN/33(H1N1) infected in MDCK cells assessed as inhibition of viral-induced cytopathic effect pretreated with cells followed by viral infection and measured after 40 hrs by fluorescence based microplate reader analysis; assay type: functional, organism-based
Influenza A virus [8] = test: Antiviral activity against influenza A virus A/WSN/33 (H1N1) in MDCK cells assessed as reduction in M2 expression preincubated with cells at 24 hrs followed by compound addition and measured at 0 to 10 hrs post infection by time of addition assay; assay type: functional, organism-based; settings: time 0-10 hrs
[9] = Cytotoxicity against dog MDCK cells assessed as reduction in cell viability incubated for 40 hrs by celltiter-glo assay; assay type: toxicity, cell-based, Canis lupus familiaris
[10] = Selectivity index, ratio of CC50 for dog MDCK cells to IC50 for influenza A virus A/WSN/33(H1N1) infected in MDCK cells; assay type: toxicity, cell-based; settings: read-out: Selectivity Index
Influenza A virus [11] = test: Antiviral activity against Influenza A virus A/WSN/33(H1N1) infected in female BALB/c kunming mouse assessed as reduction in lung index at 12.5 mg/kg/day, administered intranasally once per day for 7 days starting from 24 hrs post-viral infection and measured daily; assay type: functional; settings: time 7 day
MDCK [12] = test: Cytotoxicity against dog MDCK cells assessed as reduction in cell viability at 100 uM incubated for 40 hrs by celltiter-glo assay; assay type: toxicity, cell-based, Canis lupus familiaris
Influenza A virus [13] = test: Antiviral activity against influenza A virus A/WSN/33 (H1N1) in MDCK cells assessed as reduction in M mRNA level preincubated with cells at 24 hrs followed by compound addition and measured at 0 to 10 hrs post infection by RT-qPCR analysis; assay type: functional, organism-based; settings: time 0-10 hrs
Influenza A virus [14] = test: Antiviral activity against influenza A virus A/WSN/33 (H1N1) in MDCK cells assessed as reduction in NP expression preincubated with cells at 24 hrs followed by compound addition and measured at 0 to 2 hrs post infection by time of addition assay; assay type: functional, organism-based; settings: time 0-2 hrs
[15] = Toxicity in female BALB/c kunming mouse infected with Influenza A virus A/WSN/33(H1N1) assessed as reduction in liver injury at 6.25 to 12.5 mg/kg/day, administered intranasally once per day for 7 days starting from 24 hrs post-viral infection by H and E staining based analysis; assay type: organism-based; settings: in vivo, inhaled_or_intranasal, 168 h, dose 6.25-12.5 mg/kg/day, time 7 day
Influenza A virus [16] = test: Antiviral activity against Influenza A virus A/WSN/33(H1N1) infected in female BALB/c kunming mouse assessed as improvement in body weight administered intranasally once per day for 7 days and measured daily; assay type: functional, organism-based; settings: dose 6.25-12.5 mg/kg/day, time 7.0 day
Influenza A virus [17] = test: Antiviral activity against influenza A virus A/WSN/33 (H1N1) in MDCK cells assessed as reduction in NP expression preincubated with cells at 24 hrs followed by compound addition and measured at 0 to 10 hrs post infection by time of addition assay; assay type: functional, organism-based; settings: time 0-10 hrs
Influenza A virus [18] = test: Antiviral activity against influenza A virus A/WSN/33 (H1N1) in MDCK cells assessed as reduction in NP mRNA level preincubated with cells at 24 hrs followed by compound addition and measured at 0 to 10 hrs post infection by RT-qPCR analysis; assay type: functional, organism-based; settings: time 0-10 hrs
Influenza A virus [19] = test: Antiviral activity against influenza A virus A/WSN/33 (H1N1) in MDCK cells assessed as reduction in NP mRNA level preincubated with cells at 24 hrs followed by compound addition and measured at 0 to 2 hrs post infection by RT-qPCR analysis; assay type: functional, organism-based; settings: time 0-2 hrs
Influenza A virus [20] = test: Antiviral activity against influenza A virus A/WSN/33 (H1N1) in MDCK cells assessed as reduction in M2 expression preincubated with cells at 24 hrs followed by compound addition and measured at 0 to 2 hrs post infection by time of addition assay; assay type: functional, organism-based; settings: time 0-2 hrs
Influenza A virus [21] = test: Antiviral activity against Influenza A virus A/WSN/33(H1N1) infected in female BALB/c kunming mouse assessed as reduction in severe pneumonia at 12.5 mg/kg/day, administered intranasally once per day for 7 days starting from 24 hrs post-viral infection and measured daily; assay type: functional, organism-based; settings: time 7.0 day
Influenza A virus [22] = test: Antiviral activity against influenza A virus A/WSN/33 (H1N1) in MDCK cells assessed as reduction in M mRNA level preincubated with cells at 24 hrs followed by compound addition and measured at 0 to 2 hrs post infection by RT-qPCR analysis; assay type: functional, organism-based; settings: time 0-2 hrs
Influenza B virus = test: Antiviral activity against Influenza B virus […] (B/Darwin/58/2019/Yamagata); assay type: functional, organism-based
Influenza A virus [23] = test: Antiviral activity against Influenza A virus H1N1 infected in MDCK cells assessed as inhibition of viral growth at 100 uM relative to control; assay type: functional
Influenza A virus [24] = test: Antiviral activity against Influenza A virus H1N1 (A/Guangdong maonan/6WL197/2020); assay type: functional, organism-based
Influenza A virus [25] = test: Antiviral activity against Influenza A virus A/WSN/33(H1N1) infected in female BALB/c kunming mouse assessed as reduction in lung index at 6.25 mg/kg/day, administered intranasally once per day for 7 days starting from 24 hrs post-viral infection and measured daily; assay type: functional; settings: time 7 day
Influenza A virus [26] = test: Antiviral activity against Influenza A virus H5N1 (A/Indonesia/5/2005 (IBCDC-RG2)); assay type: functional, organism-based

With `CC1(C)CC[C@]2(C(=O)NCc3cn([C@@H]4O[C@H](CO)[C@@H](O)[C@H](O)[C@H]4O)nn3)CC[C@]3(C)C(=CC[C@@H]4[C@@]5(C)CC[C@H](OC(=O)NCc6cn(Cc7cc(Cn8cc(CNC(=O)O[C@H]9CC[C@]%10(C)[C@H]%11CC=C%12[C@@H]%13CC(C)(C)CC[C@]%13(C(=O)NCc%13cn([C@@H]%14O[C@H](CO)[C@@H](O)[C@H](O)[C@H]%14O)nn%13)CC[C@@]%12(C)[C@]%11(C)CC[C@H]%10C9(C)C)nn8)cc(Cn8cc(CNC(=O)O[C@H]9CC[C@]%10(C)[C@H]%11CC=C%12[C@@H]%13CC(C)(C)CC[C@]%13(C(=O)NCc%13cn([C@@H]%14O[C@H](CO)[C@@H](O)[C@H](O)[C@H]%14O)nn%13)CC[C@@]%12(C)[C@]%11(C)CC[C@H]%10C9(C)C)nn8)c7)nn6)C(C)(C)[C@@H]5CC[C@]43C)[C@@H]2C1` as the molecule, how does the Activity [1] read?
The Activity was “Non-toxic”.

And the Activity (Influenza A virus [2])?
The Activity was “Active”.

What about the Activity (Influenza A virus [3]) of the same molecule?
Its Activity is “Active”.

What about the Activity (Influenza A virus [4]) of the same molecule?
Its Activity is “Active; Protection In 2 Out Of 4 Mouse Was Observed”.

And the inhibition (MDCK [5])?
The inhibition was “Dose-dependent-effect”.

And the Activity (Influenza A virus [6])?
Its Activity is “Active”.

And the IC50 (Influenza A virus [7])?
Its IC50 is 0.47 µM.

What about the Activity (Influenza A virus [8]) of the same molecule?
Its Activity is “Active; Compound Exerts Antiviral Effect At Early Stage Of Infection”.

What about the CC50 at 40 h [9] of the same molecule?
Its CC50 at 40 h is greater than 100 µM.

What about the selectivity ratio [10] of the same molecule?
The selectivity ratio was greater than 213.

And the Activity_index (Influenza A virus [11])?
Its Activity_index is 1.4.

And the Activity (MDCK [12])?
The Activity was “Non-toxic”.

And the Activity (Influenza A virus [13])?
Its Activity is “Active; Compound Exerts Antiviral Effect At Early Stage Of Infection”.

And the Activity (Influenza A virus [14])?
The Activity was “Active; Compound Exerts Antiviral Effect At Early Stage Of Infection”.

What about the Activity [15] of the same molecule?
The Activity was “Non-toxic”.

What about the Activity (Influenza A virus [16]) of the same molecule?
Its Activity is “Dose-dependent-effect”.

And the Activity (Influenza A virus [17])?
The Activity was “Active; Compound Exerts Antiviral Effect At Early Stage Of Infection”.

And the Activity (Influenza A virus [18])?
The Activity was “Active; Compound Exerts Antiviral Effect At Early Stage Of Infection”.

What about the Activity (Influenza A virus [19]) of the same molecule?
Its Activity is “Active; Compound Exerts Antiviral Effect At Early Stage Of Infection”.

And the Activity (Influenza A virus [20])?
The Activity was “Active; Compound Exerts Antiviral Effect At Early Stage Of Infection”.

What about the Activity (Influenza A virus [21]) of the same molecule?
Its Activity is “Active”.

And the Activity (Influenza A virus [22])?
Its Activity is “Active; Compound Exerts Antiviral Effect At Early Stage Of Infection”.

And the IC50 (Influenza B virus)?
Its IC50 is 2.39 µM.

What about the inhibition at 100 µM (Influenza A virus [23]) of the same molecule?
The inhibition at 100 µM was greater than 75%.

And the IC50 (Influenza A virus [24])?
The IC50 was 5.24 µM.

And the Activity_index (Influenza A virus [25])?
The Activity_index was 1.7.

What about the Activity (Influenza A virus [26]) of the same molecule?
Its Activity is “inactive”.
